Data set [1] is described as follows: Microsomal stability assay, rat liver microsomes. The format is in vitro ADME. The source says: (§1) Microsomal Stability Assay
Data set [2] is described as follows: Microsomal stability assay, human liver microsomes. The format is in vitro ADME.
Source text: as §1

Data set [3] deals with Cells stably expressing Amyloid Precursor Protein (APP). The data set is described as follows: In vitro BACE cell-based assay (HEK cell assay): Aβ40 in conditioned medium by sandwich ELISA. Conditions: Homo sapiens, HEK293. In outline:
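Secreted Aβ40 was quantified by time-resolved fluorescence sandwich ELISA, capturing with pAb40 for 3 h at 4 °C and detecting with biotinylated 6E10 for 2 h at 4 °C. Media came from APP-expressing cells exposed 24 h to compounds (10-point series from 100 or 10 μM, 0.1% DMSO); IC50 derived from percent of control.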
Background: An ELISA detects its analyte on a solid surface through an enzyme-linked reagent.

Another data set deals with BACE1 (Homo sapiens, UniProt P56817). The data set is described as follows: In vitro enzymatic BACE FRET (fluorescence resonance energy transfer) assay. Conditions: read-out: BACE 1 FRET assay. Type of data set: biochemical. The method, boiled down: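 Fluorescence (ex 488 nm, […]) was read after Tris addition raised pH to neutral, ending a one-hour incubation. Reaction started with 50 nM fluorophore/quencher peptide substrate in pH 4.2 acetate (0.05 M) containing 100 uM genapol and 10% DMSO final.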
Chain of BACE1 (P56817 46-501, species assumed): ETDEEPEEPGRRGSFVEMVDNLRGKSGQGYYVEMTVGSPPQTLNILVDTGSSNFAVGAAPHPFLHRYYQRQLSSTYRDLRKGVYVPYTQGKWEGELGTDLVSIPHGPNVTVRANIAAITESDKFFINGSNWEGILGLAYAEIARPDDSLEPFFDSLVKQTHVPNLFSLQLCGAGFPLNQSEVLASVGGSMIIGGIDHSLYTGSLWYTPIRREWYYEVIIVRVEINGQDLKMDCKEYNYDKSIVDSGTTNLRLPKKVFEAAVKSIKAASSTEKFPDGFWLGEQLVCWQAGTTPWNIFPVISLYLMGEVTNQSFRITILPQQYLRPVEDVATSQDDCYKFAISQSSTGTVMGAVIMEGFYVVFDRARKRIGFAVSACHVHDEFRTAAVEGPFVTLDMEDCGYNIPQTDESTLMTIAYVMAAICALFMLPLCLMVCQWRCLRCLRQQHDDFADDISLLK

In the next data set the target is CYP3A4 (CYP3A) (Homo sapiens, UniProt P08684). Nature of the data set: CYP3A inhibition assay (midazolam, pooled human liver microsomes). Type of data set: in vitro ADME. Conditions: human, pooled human liver microsomes, pH 7.4, probe midazolam (printed as about […]); read-out: 3A4 IC50.
Chain of CYP3A4 (CYP3A) (P08684 2-503): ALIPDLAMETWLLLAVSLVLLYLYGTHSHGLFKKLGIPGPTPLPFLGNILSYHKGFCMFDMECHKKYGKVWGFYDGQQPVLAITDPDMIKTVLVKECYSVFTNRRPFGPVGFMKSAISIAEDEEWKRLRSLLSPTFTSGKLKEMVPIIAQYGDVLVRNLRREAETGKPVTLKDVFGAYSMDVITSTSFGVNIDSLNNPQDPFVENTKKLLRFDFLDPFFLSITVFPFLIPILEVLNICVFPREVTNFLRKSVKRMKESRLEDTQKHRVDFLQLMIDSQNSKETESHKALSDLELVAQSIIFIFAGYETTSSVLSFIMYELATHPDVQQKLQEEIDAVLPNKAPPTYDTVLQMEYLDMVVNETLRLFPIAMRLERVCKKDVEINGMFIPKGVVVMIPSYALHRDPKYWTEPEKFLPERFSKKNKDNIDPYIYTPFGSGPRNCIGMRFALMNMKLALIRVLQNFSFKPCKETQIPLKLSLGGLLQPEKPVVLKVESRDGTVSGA

In the case of `C=CC[C@H](NC(=O)[C@@H](C)OC)[C@H](O)CN[C@H]1CC2(CCC2)Oc2c1cc(CC(C)C)cc2-n1ccnc1` [compound 208, (2R)-N-((1S)-1-((1R)-1-hydroxy-2-(((4S)-8-(1H-imidazol-1-yl)-6-(2-methylpropyl)-3,4-dihydrospiro[chromene-2,1′-cyclobutan]-4-yl)amino)ethyl)-3-buten-1-yl)-2-methoxypropanamide], the RLM in data set [1] came to 337 µL/min/mg. In data set [2], this compound displayed an HLM of 40.5 µL/min/mg. Moreover, the IC50 turned out to be 416 nM in data set [3] and 477 nM on BACE1. In addition, on CYP3A4 (CYP3A), the IC50 at 10 min turned out to be 200 nM.

On to `C=CC[C@H](NC(=O)COC)[C@H](O)CN[C@H]1CC2(CCC2)Oc2c(-c3nccs3)cc(CC(C)C)cc21` [compound 212, N-((1S)-1-((1R)-1-hydroxy-2-(((4S)-6-(2-methylpropyl)-8-(1,3-thiazol-2-yl)-3,4-dihydrospiro[chromene-2,1′-cyclobutan]-4-yl)amino)ethyl)-3-buten-1-yl)-2-methoxyacetamide], for which the RLM in data set [1] stood at 399 µL/min/mg. This compound also returned an HLM in data set [2] of 775 µL/min/mg. Besides, the IC50 in data set [3] was 262 nM; on BACE1, 92 nM. At CYP3A4 (CYP3A), the IC50 at 10 min came out at 700 nM.

In turn, `CCOC[C@H](NC(C)=O)[C@@H](O)CN[C@H]1CC2(CCC2)Oc2ncc(CC(C)(C)C)cc21` [compound 241] yielded an RLM in data set [1] of 45 µL/min/mg. In data set [2], this compound returned an HLM of 84 µL/min/mg. Besides, the IC50 was 93 nM in data set [3] and 2720 nM at BACE1. Also, the IC50 at 10 min on CYP3A4 (CYP3A) was found to be 3700 nM.

`C=CC[C@H](NC(=O)COC)[C@H](O)CN[C@H]1CC2(CCC2)Oc2c1cc(CC(C)(C)C)nc2Nc1ccc2c(c1)OCO2` [compound 233, N-((1S)-1-((1R)-2-(((4′S)-8′-(1,3-benzodioxol-5-ylamino)-6′-(2,2-dimethylpropyl)-3′,4′-dihydrospiro[cyclobutane-1,2′-pyrano[2,3-c]pyridin]-4′-yl)amino)-1-hydroxyethyl)-3-buten-1-yl)-2-methoxyacetamide] returned an RLM in data set [1] of 197 µL/min/mg. Also, in data set [2], the HLM came out at 151 µL/min/mg. For the same compound, the figures for the IC50 (in data set [3]; on BACE1) were 388 nM and 16 nM, respectively. Also, the IC50 at 10 min on CYP3A4 (CYP3A) came to 1300 nM.

Take `CCC[C@H](NC(=O)[C@H]1CCCO1)[C@H](O)CN[C@H]1CC2(CCC2)Oc2c1cc(CC(C)(C)C)nc2NC` [compound 228, (2R)-N-((1S)-1-((1R)-2-(((4′S)-6′-(2,2-dimethylpropyl)-8′-(methylamino)-3′,4′-dihydrospiro[cyclobutane-1,2′-pyrano[2,3-c]pyridin]-4′-yl)amino)-1-hydroxyethyl)butyl)tetrahydro-2-furancarboxamide]: the RLM in data set [1] stood at 345 µL/min/mg. Also, the HLM in data set [2] was 165 µL/min/mg. In addition, the IC50 in data set [3] turned out to be 781 nM; on BACE1 it was 627 nM. The IC50 at 10 min on CYP3A4 (CYP3A) turned out to be 1500 nM.

Turning to `CC[C@H](NC(C)=O)[C@H](O)CN[C@H]1CC2(CCC2)Oc2ncc(CC(C)(C)C)cc21` [compound 213], the RLM in data set [1] was found to be 25 µL/min/mg. Moreover, the HLM in data set [2] is 36 µL/min/mg. Besides, the IC50 amounted to 339 nM in data set [3] and 60 nM on BACE1. Further, the IC50 at 10 min at CYP3A4 (CYP3A) amounted to 27000 nM.

`CCC[C@H](NC(=O)[C@@H](C)OC)[C@H](O)CN[C@H]1CC2(CCC2)Oc2c1cc(CC(C)(C)C)nc2Cl` [compound 223, (2R)-N-((1S)-1-((1R)-2-(((4′S)-8′-chloro-6′-(2,2-dimethylpropyl)-3′,4′-dihydrospiro[cyclobutane-1,2′-pyrano[2,3-c]pyridin]-4′-yl)amino)-1-hydroxyethyl)butyl)-2-(methyloxy)propanamide] yielded an RLM in data set [1] of 249 µL/min/mg. Moreover, in data set [2], the HLM is 515 µL/min/mg. For the same compound, the IC50 amounted to 10000 nM in data set [3] and 371 nM at BACE1. The IC50 at 10 min at CYP3A4 (CYP3A) came out at 3500 nM.

Regarding `C=CC[C@H](NC(=O)[C@@H]1CN(Cc2nccs2)CCO1)[C@H](O)CN[C@H]1CC2(CCC2)Oc2ncc(CC(C)(C)C)cc21` [compound 246, (2S)-N-((1S)-1-((1R)-2-(((4′S)-6′-(2,2-dimethylpropyl)-3′,4′-dihydrospiro[cyclobutane-1,2′-pyrano[2,3-b]pyridin]-4′-yl)amino)-1-hydroxyethyl)-3-buten-1-yl)-4-(1,3-thiazol-2-ylmethyl)-2-morpholinecarboxamide], the RLM in data set [1] amounted to 335 µL/min/mg. Also, the HLM in data set [2] was 736 µL/min/mg. The IC50 in data set [3] was 116 nM; on BACE1 it was 128 nM. Moreover, the IC50 at 10 min at CYP3A4 (CYP3A) came out at 700 nM.

For the compound `C=CC[C@H](NC(=O)COC)[C@H](O)CN[C@H]1CC2(CCC2)Oc2ncc(C(F)(F)C(C)(C)C)cc21` [compound 234], the RLM in data set [1] was found to be 173 µL/min/mg. For the same compound, the HLM in data set [2] came out at 299 µL/min/mg. Besides, the IC50 in data set [3] was 5630 nM; on BACE1, 2410 nM. The IC50 at 10 min on CYP3A4 (CYP3A) came to 4100 nM.

Compound `C=CC[C@H](NC(=O)CCC(C)(C)C)[C@H](O)CN[C@H]1CC2(CCC2)Oc2ncc(CC(C)(C)C)cc21` [compound 245] showed an RLM in data set [1] of 459 µL/min/mg. The same compound displayed an HLM in data set [2] of 829 µL/min/mg. The IC50 in data set [3] came to 10000 nM; at BACE1, 9250 nM. Besides, the IC50 at 10 min at CYP3A4 (CYP3A) worked out at 300 nM.

For the compound `C=CC[C@H](NC(=O)COC)[C@H](O)CN[C@H]1CC2(CCC2)Oc2c(-c3cnc[nH]3)cc(CC(C)(C)C)cc21` [compound 218, N-((1S)-1-((1R)-2-(((4S)-6-(2,2-dimethylpropyl)-8-(1H-imidazol-5-yl)-3,4-dihydrospiro[chromene-2,1′-cyclobutan]-4-yl)amino)-1-hydroxyethyl)-3-buten-1-yl)-2-methoxyacetamide], the RLM in data set [1] is 185 µL/min/mg. This compound gave an HLM in data set [2] of 215 µL/min/mg. In addition, the IC50 was 71 nM in data set [3] and 179 nM on BACE1. On CYP3A4 (CYP3A), the IC50 at 10 min was found to be 300 nM.

On to `C=CC[C@H](NC(=O)COC)[C@H](O)CN[C@H]1CC2(CCC2)Oc2c(-c3cncs3)cc(CC(C)(C)C)cc21` [compound 217], for which the RLM in data set [1] worked out at 477 µL/min/mg. This compound registered an HLM in data set [2] of 551 µL/min/mg. In addition, the IC50 stood at 920 nM in data set [3] and 20 nM at BACE1. Besides, the IC50 at 10 min at CYP3A4 (CYP3A) is 200 nM.

On to `C=CC[C@H](NC(=O)[C@H]1CCC(=O)O1)[C@H](O)CN[C@H]1CC2(CCC2)Oc2ncc(CC(C)(C)C)cc21` [compound 211], for which, in data set [1], the RLM turned out to be 137 µL/min/mg. Besides, the HLM in data set [2] was 104 µL/min/mg. The IC50 in data set [3] came to 57 nM; on BACE1, 15 nM. Further, on CYP3A4 (CYP3A), the IC50 at 10 min was 1300 nM.

Turning to `C=CC[C@H](NC(=O)COC)[C@H](O)CN[C@H]1CC2(CCC2)Oc2c(-c3cccnc3)cc(CC(C)(C)C)cc21` [compound 220], the RLM in data set [1] came out at 369 µL/min/mg. In data set [2], this compound displayed an HLM of 569 µL/min/mg. Besides, the figures for the IC50 (in data set [3]; on BACE1) were 125 nM and 107 nM, respectively. Moreover, the IC50 at 10 min at CYP3A4 (CYP3A) is 300 nM.

As for `C#CC[C@H](NC(=O)[C@@H](C)OC)[C@H](O)CN[C@H]1CC2(CCC2)Oc2c1cc(CC(C)(C)C)nc2NC` [compound 222], the RLM in data set [1] is 156 µL/min/mg. This compound displayed an HLM in data set [2] of 165 µL/min/mg. In addition, the IC50 was found to be 891 nM in data set [3] and 1220 nM at BACE1. Besides, on CYP3A4 (CYP3A), the IC50 at 10 min was 1400 nM.

`C=CC[C@H](NC(C)=O)[C@H](O)CN[C@H]1CC2(CCC2)Oc2c1cc(CC(C)(C)C)nc2Nc1ccccc1` [compound 229, N-((1S)-1-((1R)-2-(((4′S)-6′-(2,2-dimethylpropyl)-8′-(phenylamino)-3′,4′-dihydrospiro[cyclobutane-1,2′-pyrano[2,3-c]pyridin]-4′-yl)amino)-1-hydroxyethyl)-3-buten-1-yl)acetamide] gave an RLM in data set [1] of 150 µL/min/mg. This compound also displayed an HLM in data set [2] of 139 µL/min/mg. Further, the IC50 in data set [3] is 987 nM; on BACE1, 26 nM. In addition, the IC50 at 10 min on CYP3A4 (CYP3A) amounted to 6100 nM.

Turning to `CCC[C@H](NC(=O)[C@@H](C)OC)[C@H](O)CN[C@H]1CC2(CCC2)Oc2c1cc(CC(C)(C)C)nc2NC` [compound 227], in data set [1], the RLM worked out at 212 µL/min/mg. Also, in data set [2], the HLM turned out to be 119 µL/min/mg. Also, the IC50 in data set [3] stood at 163 nM; at BACE1, 903 nM. The IC50 at 10 min on CYP3A4 (CYP3A) turned out to be 1500 nM.

The compound `C=CC[C@H](NC(=O)COC)[C@H](O)CN[C@H]1CC2(CCC2)Oc2c(-c3ccc4c(c3)OCO4)cc(CC(C)(C)C)cc21` [compound 231, N-((1S)-1-((1R)-2-(((4S)-8-(1,3-benzodioxol-5-yl)-6-(2,2-dimethylpropyl)-3,4-dihydrospiro[chromene-2,1′-cyclobutan]-4-yl)amino)-1-hydroxyethyl)-3-buten-1-yl)-2-methoxyacetamide] yielded an RLM in data set [1] of 232 µL/min/mg. Moreover, the HLM in data set [2] was determined as 284 µL/min/mg. The values for the IC50 (in data set [3]; on BACE1) were 369 nM and 78 nM, respectively. The IC50 at 10 min at CYP3A4 (CYP3A) worked out at 1000 nM.
